Data reported in US6706663B2, “Herbicidal 3-heterocyclic substituted benzisothiazole and benzisoxazole compounds” (Wyeth, priority 2000, dated 2004).

Assays:
[1] = system: GLXMAW (Soybean, Williams); assay: Preemergence herbicidal evaluation; format: in vivo, Glycine max, (L.) Merr. cv Williams; conditions: rated 4-5 weeks after treatment
[2] = system: GLXMAW (Soybean, Williams); assay: Postemergence herbicidal evaluation; format: in vivo, Glycine max, (L.) Merr. cv Williams
Summary of the method: (§1)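 Visual 0–9 injury scores versus control plants, covering stand, vigour, malformation, size, chlorosis and general appearance, taken four to five weeks post-spray and averaged over replicate tests. Plants were sprayed at roughly two weeks old and held on greenhouse benches.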

[3] = system: SAGPY (Sagittaria pygmaea); assay: Flooded paddy, preemergence weed control; format: in vivo, L.; conditions: rated 3-4 weeks after treatment, 0-9 rating scale
Summary of the method: (§2)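 Silt loam, sowing depth ≤0.5 cm; permanent flood 1.5–3 cm above soil; greenhouse culture after treatment. Readout: 0-9 visual scale (stand, vigor, malformation, size, chlorosis, appearance) vs control.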

ZEAMX (Corn, Field) [4] = assay: Preemergence herbicidal evaluation; format: in vivo, Zea mays, L.; conditions: rated 4-5 weeks after treatment
[5] = system: ABUTH (Abutilon theophrasti); assay: Postemergence herbicidal evaluation; format: in vivo, Medic.
Summary of the method: as §1

[6] = system: CASOB (Cassia obtusifolia); assay: Preemergence herbicidal evaluation; format: in vivo, L.; conditions: rated 4-5 weeks after treatment
Summary of the method: (§3)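 Preemergence soil spray, aq. acetone; greenhouse; visual 0–9 score vs control at 4–5 wk.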

[7] = system: CHEAL (Chenopodium album); assay: Preemergence herbicidal evaluation; format: in vivo, L.; conditions: rated 4-5 weeks after treatment
Summary of the method: as §3

[8] = system: AMBEL (Ambrosia artemisifolia); assay: Preemergence herbicidal evaluation; format: in vivo, L.; conditions: rated 4-5 weeks after treatment
Summary of the method: as §3

[9] = system: IPOHE (Ipomoea hederacea); assay: Postemergence herbicidal evaluation; format: in vivo, (L.) Jacq.
Summary of the method: as §1

[10] = system: CASOB (Cassia obtusifolia); assay: Postemergence herbicidal evaluation; format: in vivo, L.
Summary of the method: as §1

[11] = system: CHEAL (Chenopodium album); assay: Postemergence herbicidal evaluation; format: in vivo, L.
Summary of the method: as §1

[12] = system: AMBEL (Ambrosia artemisifolia); assay: Postemergence herbicidal evaluation; format: in vivo, L.
Summary of the method: as §1

[13] = system: ECHORC (Echinochloa oryzoides); assay: Flooded paddy, preemergence weed control; format: in vivo, Echinochloa oryzoides (Ard.) Fritsch.; conditions: rated 3-4 weeks after treatment, 0-9 rating scale
Summary of the method: as §2

CYPIR (Cyperus iria) = assay: Flooded paddy, preemergence weed control; format: in vivo; conditions: rated 3-4 weeks after treatment, 0-9 rating scale
Summary of the method: as §2

[14] = system: IPOHE (Ipomoea hederacea); assay: Preemergence herbicidal evaluation; format: in vivo, (L.) Jacq.; conditions: rated 4-5 weeks after treatment
ZEAMX (Corn, Field) [15] = assay: Postemergence herbicidal evaluation; format: in vivo, Zea mays, L.
Summary of the method: as §1

GALAP (Galium aparine) [16] = assay: Postemergence herbicidal evaluation; format: in vivo
Summary of the method: as §1

GALAP (Galium aparine) [17] = assay: Preemergence herbicidal evaluation; format: in vivo; conditions: rated 4-5 weeks after treatment
Summary of the method: as §3

[18] = system: CYPSE (Cyperus serotinus); assay: Flooded paddy, preemergence weed control; format: in vivo, Rottb.; conditions: rated 3-4 weeks after treatment, 0-9 rating scale
Summary of the method: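 Seeds or propagules were planted 0.5 cm deep in silt loam and flooded to 1.5–3 cm. Compounds in 50/50 v/v aqueous/acetone were pipetted into the flood water at about 0.0080 to 0.1250 kg/ha. After 3–4 weeks in the greenhouse, effect was rated visually on a 0–9 scale versus untreated control.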

[19] = system: ECHCG (Echinochloa crus-galli); assay: Postemergence herbicidal evaluation; format: in vivo, (L.) Beau
Summary of the method: as §1

ORYSAT (Rice, Tebonnet) = assay: Preemergence herbicidal evaluation; format: in vivo, Oryza sativa, (L.) Tebonnet; conditions: rated 4-5 weeks after treatment
[20] = system: TRZAWR (Wheat, Winter, cv Riband); assay: Preemergence herbicidal evaluation; format: in vivo, Triticum aestivum; conditions: rated 4-5 weeks after treatment
Summary of the method: as §3

## Cc1ccc(-c2nsc3ccc(-n4c(=O)cc(C(F)(F)F)n(C)c4=O)cc23)nc1 [Compound 42, 1-methyl-3-[3-(5-methyl-2-pyridyl)-1,2-benzisothiazol-5-yl]-6-(trifluoromethyl)uracil]
[1]; Rate 0.0620 kg/ha
  Preemergence herbicidal rating GLXMAW: 0.0
[1]; Rate 0.1250 kg/ha
  Preemergence herbicidal rating GLXMAW: 1.0
[1]; Rate 0.2500 kg/ha
  Preemergence herbicidal rating GLXMAW: 2.5
[2]; rate 0.0320 kg/ha
  Postemergence herbicidal rating, GLXMAW: 6.0
[2]; rate 0.0620 kg/ha
  Postemergence herbicidal rating, GLXMAW: 8.0
[2]; rate 0.1250 kg/ha
  Postemergence herbicidal rating, GLXMAW: 8.0
[3]; rate 0.0320 kg/ha
  herbicidal rating, SAGPY: 0.0
[3]; rate 0.1250 kg/ha
  herbicidal rating, SAGPY: 3.0
ZEAMX (Corn, Field) [4]; Rate 0.0620 kg/ha
  Preemergence herbicidal rating ZEAMX: 3.5
ZEAMX (Corn, Field) [4]; Rate 0.1250 kg/ha
  Preemergence herbicidal rating ZEAMX: 6.0
ZEAMX (Corn, Field) [4]; Rate 0.2500 kg/ha
  Preemergence herbicidal rating ZEAMX: 6.5
[5]; rate 0.0320 kg/ha
  Postemergence herbicidal rating, ABUTH: 9.0
[5]; rate 0.0620 kg/ha
  Postemergence herbicidal rating, ABUTH: 9.0
[5]; rate 0.1250 kg/ha
  Postemergence herbicidal rating, ABUTH: 9.0
[6]; Rate 0.0620 kg/ha
  Preemergence herbicidal rating CASOB: 0.5
[6]; Rate 0.1250 kg/ha
  Preemergence herbicidal rating CASOB: 0.5
[6]; Rate 0.2500 kg/ha
  Preemergence herbicidal rating CASOB: 0.0
[7]; Rate 0.0620 kg/ha
  Preemergence herbicidal rating CHEAL: 9.0
[7]; Rate 0.1250 kg/ha
  Preemergence herbicidal rating CHEAL: 9.0
[7]; Rate 0.2500 kg/ha
  Preemergence herbicidal rating CHEAL: 9.0
[8]; Rate 0.0620 kg/ha
  Preemergence herbicidal rating AMBEL: 1.0
[8]; Rate 0.1250 kg/ha
  Preemergence herbicidal rating AMBEL: 4.5
[8]; Rate 0.2500 kg/ha
  Preemergence herbicidal rating AMBEL: 9.0
[9]; rate 0.0320 kg/ha
  Postemergence herbicidal rating, IPOHE: 9.0
[9]; rate 0.0620 kg/ha
  Postemergence herbicidal rating, IPOHE: 9.0
[9]; rate 0.1250 kg/ha
  Postemergence herbicidal rating, IPOHE: 9.0
[10]; rate 0.0320 kg/ha
  Postemergence herbicidal rating, CASOB: 1.0
[10]; rate 0.0620 kg/ha
  Postemergence herbicidal rating, CASOB: 1.0
[10]; rate 0.1250 kg/ha
  Postemergence herbicidal rating, CASOB: 4.0
[11]; rate 0.0320 kg/ha
  Postemergence herbicidal rating, CHEAL: 9.0
[11]; rate 0.0620 kg/ha
  Postemergence herbicidal rating, CHEAL: 9.0
[11]; rate 0.1250 kg/ha
  Postemergence herbicidal rating, CHEAL: 9.0
[12]; rate 0.0320 kg/ha
  Postemergence herbicidal rating, AMBEL: 9.0
[12]; rate 0.0620 kg/ha
  Postemergence herbicidal rating, AMBEL: 9.0
[12]; rate 0.1250 kg/ha
  Postemergence herbicidal rating, AMBEL: 9.0
[13]; rate 0.0320 kg/ha
  herbicidal rating, ECHORC: 2.0
[13]; rate 0.1250 kg/ha
  herbicidal rating, ECHORC: 6.0
CYPIR (Cyperus iria); rate 0.0320 kg/ha
  herbicidal rating, CYPIR: 3.0
CYPIR (Cyperus iria); rate 0.1250 kg/ha
  herbicidal rating, CYPIR: 6.0
[14]; Rate 0.0620 kg/ha
  Preemergence herbicidal rating IPOHE: 1.0
[14]; Rate 0.1250 kg/ha
  Preemergence herbicidal rating IPOHE: 2.0
[14]; Rate 0.2500 kg/ha
  Preemergence herbicidal rating IPOHE: 4.5
ZEAMX (Corn, Field) [15]; rate 0.0320 kg/ha
  Postemergence herbicidal rating, ZEAMX: 5.5
ZEAMX (Corn, Field) [15]; rate 0.0620 kg/ha
  Postemergence herbicidal rating, ZEAMX: 5.5
ZEAMX (Corn, Field) [15]; rate 0.1250 kg/ha
  Postemergence herbicidal rating, ZEAMX: 5.5
GALAP (Galium aparine) [16]; rate 0.0320 kg/ha
  Postemergence herbicidal rating, GALAP: 1.0
GALAP (Galium aparine) [16]; rate 0.0620 kg/ha
  Postemergence herbicidal rating, GALAP: 3.0
GALAP (Galium aparine) [16]; rate 0.1250 kg/ha
  Postemergence herbicidal rating, GALAP: 3.0
GALAP (Galium aparine) [17]; Rate 0.0620 kg/ha
  Preemergence herbicidal rating GALAP: 0.0
GALAP (Galium aparine) [17]; Rate 0.1250 kg/ha
  Preemergence herbicidal rating GALAP: 0.0
GALAP (Galium aparine) [17]; Rate 0.2500 kg/ha
  Preemergence herbicidal rating GALAP: 3.0
[18]; rate 0.0320 kg/ha
  herbicidal rating, CYPSE: 0.0
[18]; rate 0.1250 kg/ha
  herbicidal rating, CYPSE: 0.0
[19]; rate 0.0320 kg/ha
  Postemergence herbicidal rating, ECHCG: 1.0
[19]; rate 0.0620 kg/ha
  Postemergence herbicidal rating, ECHCG: 1.0
[19]; rate 0.1250 kg/ha
  Postemergence herbicidal rating, ECHCG: 3.0
ORYSAT (Rice, Tebonnet); Rate 0.0620 kg/ha
  Preemergence herbicidal rating ORYSAT: 0.0
ORYSAT (Rice, Tebonnet); Rate 0.1250 kg/ha
  Preemergence herbicidal rating ORYSAT: 3.5
ORYSAT (Rice, Tebonnet); Rate 0.2500 kg/ha
  Preemergence herbicidal rating ORYSAT: 5.0
[20]; Rate 0.0620 kg/ha
  Preemergence herbicidal rating TRZAWR: 0.0
[20]; Rate 0.1250 kg/ha
  Preemergence herbicidal rating TRZAWR: 2.0
[20]; Rate 0.2500 kg/ha
  Preemergence herbicidal rating TRZAWR: 5.0
